Assay results taken from article PMC8500670, “A selective WDR5 degrader inhibits acute myeloid leukemia in patient-derived mouse models” (Science translational medicine, 2021).

What was measured:
Assay in all cases: biochemical
Design in all cases: GPCR, ion channel and transporter panel, per cent inhibition of binding, mean of four
Beta1 = target: T1, Beta1 (Homo sapiens, UniProt P08588)
T1 construct: gene ADRB1
Experimental: (§1) We next assessed selectivity of MS67 against 22 protein methyltransferases (table S2) and a broad panel of common drug targets including 45 kinases (table S3) and 44 G protein–coupled receptors (GPCR), ion channels, and transporters (table S4). […] We subsequently determined that MS67 had moderate binding affinity (Ki = 1.0 ± 0.8 μM) to Sigma 2 receptor (fig. S10).

5-HT2C = target: T2, 5-HT2C (Homo sapiens, UniProt P28335)
T2 construct: gene HTR2C
Experimental: as §1

Alpha1A = target: T3, Alpha1A (Homo sapiens, UniProt P35348)
T3 construct: gene ADRA1A
Experimental: as §1

5-HT1D = target: T4, 5-HT1D (Homo sapiens, UniProt P28221)
T4 construct: gene HTR1D
T4 sequence (P28221 whole entry): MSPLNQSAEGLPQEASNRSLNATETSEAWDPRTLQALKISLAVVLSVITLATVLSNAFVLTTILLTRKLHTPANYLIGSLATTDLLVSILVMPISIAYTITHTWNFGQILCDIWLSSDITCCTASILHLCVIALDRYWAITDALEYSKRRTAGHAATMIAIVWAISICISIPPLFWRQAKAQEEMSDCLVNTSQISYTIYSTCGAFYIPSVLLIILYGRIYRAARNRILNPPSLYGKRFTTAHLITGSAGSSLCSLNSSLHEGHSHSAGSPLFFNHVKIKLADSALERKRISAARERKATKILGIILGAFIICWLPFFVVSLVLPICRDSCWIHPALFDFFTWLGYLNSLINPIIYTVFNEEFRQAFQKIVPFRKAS
Experimental: as §1

M5 = target: T5, M5 (Homo sapiens, UniProt P08912)
T5 construct: gene CHRM5
T5 sequence (P08912 whole entry): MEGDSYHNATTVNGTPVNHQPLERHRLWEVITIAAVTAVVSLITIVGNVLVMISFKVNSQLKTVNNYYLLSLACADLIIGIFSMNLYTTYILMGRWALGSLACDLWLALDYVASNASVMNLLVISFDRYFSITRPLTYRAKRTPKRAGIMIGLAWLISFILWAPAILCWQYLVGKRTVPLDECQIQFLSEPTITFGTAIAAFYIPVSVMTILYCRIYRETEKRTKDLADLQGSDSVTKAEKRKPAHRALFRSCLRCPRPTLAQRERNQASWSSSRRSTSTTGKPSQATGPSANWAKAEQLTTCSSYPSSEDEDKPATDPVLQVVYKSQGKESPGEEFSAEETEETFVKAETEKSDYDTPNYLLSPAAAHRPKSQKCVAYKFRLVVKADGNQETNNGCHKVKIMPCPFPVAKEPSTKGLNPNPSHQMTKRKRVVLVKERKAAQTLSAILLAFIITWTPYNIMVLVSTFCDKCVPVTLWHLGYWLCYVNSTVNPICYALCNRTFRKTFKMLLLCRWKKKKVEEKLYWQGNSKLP
Experimental: as §1

Alpha1D = target: T6, Alpha1D (Homo sapiens, UniProt P25100)
T6 construct: gene ADRA1D
T6 sequence (P25100 whole entry): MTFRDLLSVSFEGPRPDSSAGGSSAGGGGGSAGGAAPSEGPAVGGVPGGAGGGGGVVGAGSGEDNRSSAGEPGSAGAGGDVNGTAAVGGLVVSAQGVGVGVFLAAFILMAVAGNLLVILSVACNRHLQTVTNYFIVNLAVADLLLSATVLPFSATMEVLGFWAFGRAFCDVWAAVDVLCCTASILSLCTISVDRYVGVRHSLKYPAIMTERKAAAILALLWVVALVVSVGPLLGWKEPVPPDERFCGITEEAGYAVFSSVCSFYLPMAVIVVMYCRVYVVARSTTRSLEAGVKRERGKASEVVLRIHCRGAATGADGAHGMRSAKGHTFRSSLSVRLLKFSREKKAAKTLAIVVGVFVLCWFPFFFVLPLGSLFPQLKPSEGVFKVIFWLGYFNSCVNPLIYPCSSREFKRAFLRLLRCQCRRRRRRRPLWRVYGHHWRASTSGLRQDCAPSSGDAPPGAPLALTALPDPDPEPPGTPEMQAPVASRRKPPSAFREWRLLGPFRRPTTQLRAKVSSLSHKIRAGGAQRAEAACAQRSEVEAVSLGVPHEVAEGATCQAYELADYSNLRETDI
Experimental: as §1

Sigma 1 = target: T7, Sigma 1 (Homo sapiens, UniProt Q99720)
T7 construct: gene SIGMAR1
Experimental: as §1

Alpha2A = target: T8, Alpha2A (Homo sapiens, UniProt P08913)
T8 construct: gene ADRA2A
Experimental: as §1

NET = target: T9, NET (Homo sapiens, UniProt P23975)
T9 construct: gene SLC6A2
Experimental: as §1

D3 = target: T10, D3 (Homo sapiens, UniProt P35462)
T10 construct: gene DRD3
Experimental: as §1

M4 = target: T11, M4 (Homo sapiens, UniProt P08173)
T11 construct: gene CHRM4
Experimental: as §1

5-HT1A = target: T12, 5-HT1A (Homo sapiens, UniProt P08908)
T12 construct: gene HTR1A
T12 sequence (P08908 whole entry): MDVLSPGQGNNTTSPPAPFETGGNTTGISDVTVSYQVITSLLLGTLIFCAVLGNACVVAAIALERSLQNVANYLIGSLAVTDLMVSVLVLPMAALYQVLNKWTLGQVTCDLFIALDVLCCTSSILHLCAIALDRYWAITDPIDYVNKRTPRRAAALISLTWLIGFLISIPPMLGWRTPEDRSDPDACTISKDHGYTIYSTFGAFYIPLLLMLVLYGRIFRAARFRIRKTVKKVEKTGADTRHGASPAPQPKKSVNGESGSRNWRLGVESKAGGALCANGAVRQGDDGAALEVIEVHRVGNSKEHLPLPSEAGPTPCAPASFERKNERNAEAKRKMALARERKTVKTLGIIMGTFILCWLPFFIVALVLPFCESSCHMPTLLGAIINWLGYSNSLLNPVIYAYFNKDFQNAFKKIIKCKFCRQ
Experimental: as §1

H2 = target: T13, H2 (Homo sapiens, UniProt P25021)
T13 construct: gene HRH2
Experimental: as §1

D5 = target: T14, D5 (Homo sapiens, UniProt P21918)
T14 construct: gene DRD5
Experimental: as §1

D4 = target: T15, D4 (Homo sapiens, UniProt P21917)
T15 construct: gene DRD4
Experimental: as §1

Beta2 = target: T16, Beta2 (Homo sapiens, UniProt P07550)
T16 construct: gene ADRB2
Experimental: as §1

Alpha2B = target: T17, Alpha2B (Homo sapiens, UniProt P18089)
T17 construct: gene ADRA2B
Experimental: as §1

Alpha2C = target: T18, Alpha2C (Homo sapiens, UniProt P18825)
T18 construct: gene ADRA2C
T18 sequence (P18825 whole entry): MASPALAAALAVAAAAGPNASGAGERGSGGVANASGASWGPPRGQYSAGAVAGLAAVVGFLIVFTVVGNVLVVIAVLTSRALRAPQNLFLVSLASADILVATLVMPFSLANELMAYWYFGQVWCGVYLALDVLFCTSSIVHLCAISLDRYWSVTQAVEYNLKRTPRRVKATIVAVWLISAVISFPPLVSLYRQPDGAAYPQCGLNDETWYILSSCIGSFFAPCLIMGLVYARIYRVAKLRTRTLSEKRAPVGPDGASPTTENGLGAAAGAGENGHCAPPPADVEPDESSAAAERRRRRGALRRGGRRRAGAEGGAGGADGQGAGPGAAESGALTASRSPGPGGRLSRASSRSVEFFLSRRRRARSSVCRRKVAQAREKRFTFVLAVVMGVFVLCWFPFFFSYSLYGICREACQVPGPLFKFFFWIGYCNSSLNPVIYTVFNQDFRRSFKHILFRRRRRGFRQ
Experimental: as §1

Beta3 = target: T19, Beta3 (Homo sapiens, UniProt P13945)
T19 construct: gene ADRB3
Experimental: as §1

5-HT1E = target: T20, 5-HT1E (Homo sapiens, UniProt P28566)
T20 construct: gene HTR1E
T20 sequence (P28566 whole entry): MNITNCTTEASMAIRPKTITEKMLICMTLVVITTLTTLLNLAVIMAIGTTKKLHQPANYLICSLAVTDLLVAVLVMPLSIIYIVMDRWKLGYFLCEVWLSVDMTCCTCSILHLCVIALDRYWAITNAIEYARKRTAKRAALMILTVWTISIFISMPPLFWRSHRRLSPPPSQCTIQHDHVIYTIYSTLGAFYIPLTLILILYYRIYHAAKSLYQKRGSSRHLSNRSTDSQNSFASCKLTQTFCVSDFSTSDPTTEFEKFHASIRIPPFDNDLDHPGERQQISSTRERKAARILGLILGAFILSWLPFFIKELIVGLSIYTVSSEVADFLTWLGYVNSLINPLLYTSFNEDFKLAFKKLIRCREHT
Experimental: as §1

H1 = target: T21, H1 (Homo sapiens, UniProt P35367)
T21 construct: gene HRH1
T21 sequence (P35367 whole entry): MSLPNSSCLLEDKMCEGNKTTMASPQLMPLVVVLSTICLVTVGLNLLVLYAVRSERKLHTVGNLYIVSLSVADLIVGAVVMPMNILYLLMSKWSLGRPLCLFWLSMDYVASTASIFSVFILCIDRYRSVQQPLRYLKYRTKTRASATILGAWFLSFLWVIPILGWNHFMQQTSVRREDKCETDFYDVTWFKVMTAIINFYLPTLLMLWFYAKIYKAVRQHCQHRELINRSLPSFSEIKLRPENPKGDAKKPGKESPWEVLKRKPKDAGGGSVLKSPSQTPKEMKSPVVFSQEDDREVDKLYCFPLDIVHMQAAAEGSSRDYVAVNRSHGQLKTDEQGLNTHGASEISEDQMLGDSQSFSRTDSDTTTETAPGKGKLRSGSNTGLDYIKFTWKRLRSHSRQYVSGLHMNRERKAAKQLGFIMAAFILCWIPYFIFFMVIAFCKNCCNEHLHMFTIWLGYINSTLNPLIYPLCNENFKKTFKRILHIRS
Experimental: as §1

M2 = target: T22, M2 (Homo sapiens, UniProt P08172)
T22 construct: gene CHRM2
Experimental: as §1

M3 = target: T23, M3 (Homo sapiens, UniProt P20309)
T23 construct: gene CHRM3
T23 sequence (P20309 whole entry): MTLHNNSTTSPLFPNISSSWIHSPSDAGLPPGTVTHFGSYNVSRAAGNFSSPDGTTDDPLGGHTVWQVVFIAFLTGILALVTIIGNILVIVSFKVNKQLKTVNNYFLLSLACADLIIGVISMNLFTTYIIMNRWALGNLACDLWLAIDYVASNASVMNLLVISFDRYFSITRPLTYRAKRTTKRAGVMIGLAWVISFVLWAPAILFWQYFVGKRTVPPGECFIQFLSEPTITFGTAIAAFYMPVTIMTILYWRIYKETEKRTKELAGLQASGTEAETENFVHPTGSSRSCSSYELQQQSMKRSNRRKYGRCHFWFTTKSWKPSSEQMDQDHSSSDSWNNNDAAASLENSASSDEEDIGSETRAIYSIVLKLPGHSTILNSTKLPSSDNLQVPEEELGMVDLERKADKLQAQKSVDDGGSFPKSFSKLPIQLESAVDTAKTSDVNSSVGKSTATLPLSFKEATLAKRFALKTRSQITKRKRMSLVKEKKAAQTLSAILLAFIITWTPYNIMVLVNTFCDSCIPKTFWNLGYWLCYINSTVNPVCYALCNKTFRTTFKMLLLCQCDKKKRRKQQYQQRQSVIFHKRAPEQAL
Experimental: as §1

M1 = target: T24, M1 (Homo sapiens, UniProt P11229)
T24 construct: gene CHRM1
T24 sequence (P11229 whole entry): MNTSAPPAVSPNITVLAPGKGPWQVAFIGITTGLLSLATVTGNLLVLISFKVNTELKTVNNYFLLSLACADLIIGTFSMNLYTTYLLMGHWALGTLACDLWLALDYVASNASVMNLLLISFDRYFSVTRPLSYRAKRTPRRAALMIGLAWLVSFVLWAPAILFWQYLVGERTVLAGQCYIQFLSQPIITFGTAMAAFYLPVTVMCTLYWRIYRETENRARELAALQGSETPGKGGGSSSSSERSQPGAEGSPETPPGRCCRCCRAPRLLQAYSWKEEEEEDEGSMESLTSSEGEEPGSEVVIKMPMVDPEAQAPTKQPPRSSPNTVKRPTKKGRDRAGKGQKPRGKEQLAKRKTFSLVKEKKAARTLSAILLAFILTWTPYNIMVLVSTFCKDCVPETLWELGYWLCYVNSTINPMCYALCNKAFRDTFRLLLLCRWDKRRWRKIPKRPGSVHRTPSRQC
Experimental: as §1

5-HT2A = target: T25, 5-HT2A (Homo sapiens, UniProt P28223)
T25 construct: gene HTR2A
Experimental: as §1

Alpha1B = target: T26, Alpha1B (Homo sapiens, UniProt P35368)
T26 construct: gene ADRA1B
T26 sequence (P35368 whole entry): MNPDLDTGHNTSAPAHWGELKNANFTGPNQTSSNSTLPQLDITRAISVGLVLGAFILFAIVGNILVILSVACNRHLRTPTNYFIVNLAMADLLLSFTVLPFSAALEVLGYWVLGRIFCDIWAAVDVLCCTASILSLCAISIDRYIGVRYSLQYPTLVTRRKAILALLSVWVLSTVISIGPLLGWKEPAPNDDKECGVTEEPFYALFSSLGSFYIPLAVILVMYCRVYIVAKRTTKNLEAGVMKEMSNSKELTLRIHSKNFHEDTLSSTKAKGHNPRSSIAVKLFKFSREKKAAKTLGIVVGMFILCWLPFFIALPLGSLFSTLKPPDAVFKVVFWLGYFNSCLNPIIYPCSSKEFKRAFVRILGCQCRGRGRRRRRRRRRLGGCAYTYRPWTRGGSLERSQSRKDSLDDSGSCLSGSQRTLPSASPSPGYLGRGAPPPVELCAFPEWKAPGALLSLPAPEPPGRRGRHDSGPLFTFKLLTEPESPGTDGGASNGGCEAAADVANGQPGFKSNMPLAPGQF
Experimental: as §1

## Cc1ncsc1-c1ccc([C@H](C)NC(=O)[C@@H]2C[C@@H](O)CN2C(=O)[C@@H](NC(=O)CNC(=O)c2ccc(F)c(-c3ccc(N4C[C@@H](C)N(C)[C@@H](C)C4)c(NC(=O)c4c[nH]c(=O)cc4C(F)(F)F)c3)c2)C(C)(C)C)cc1 [MS67]
Beta1
  inhibition at 1 µM: 16.9%
5-HT2C
  inhibition at 1 µM: 3.09%
Alpha1A
  inhibition at 1 µM: 24.4%
5-HT1D
  inhibition at 1 µM: 41.7%
M5
  inhibition at 1 µM: 2.36%
Alpha1D
  inhibition at 1 µM: 28.5%
Sigma 1
  inhibition at 1 µM: 48.8%
Alpha2A
  inhibition at 1 µM: 21.3%
NET
  inhibition at 1 µM: -8.91%
D3
  inhibition at 1 µM: 22.9%
M4
  inhibition at 1 µM: 30.9%
5-HT1A
  inhibition at 1 µM: 14.3%
H2
  inhibition at 1 µM: 19.7%
D5
  inhibition at 1 µM: 22.1%
D4
  inhibition at 1 µM: 5.81%
Beta2
  inhibition at 1 µM: -23%
Alpha2B
  inhibition at 1 µM: 21.1%
Alpha2C
  inhibition at 1 µM: 1.35%
Beta3
  inhibition at 1 µM: 32%
5-HT1E
  inhibition at 1 µM: 0.02%
H1
  inhibition at 1 µM: 15.9%
M2
  inhibition at 1 µM: 31.1%
M3
  inhibition at 1 µM: 23.9%
M1
  inhibition at 1 µM: 43.6%
5-HT2A
  inhibition at 1 µM: 11%
Alpha1B
  inhibition at 1 µM: 27.6%
